Experimental data: PMC9516332 (Frontiers in Oncology, 2022)
Read-outs that look alike come from different tables or passages of the source.

Tests used:
134 cancer cell lines = assay: Cell viability assay (ATPlite, 72 hours), IC50 on cancer cell line panel
AP-1060 (ETV6-NTRK3) = assay: Cell viability assay; conditions: read-out: IC50 in cell proliferation assay

## Cn1cnc2c(F)c(Nc3ccc(Br)cc3F)c(C(=O)NOCCO)cc21 [binimetinib]
134 cancer cell lines; Homo sapiens, MV4-11, read-out: IC50 in cell proliferation assay, MV4-11 cell line (FLT3 ITD)
  IC50: 0.511 µM
134 cancer cell lines; Homo sapiens, MeWo, read-out: IC50 in cell proliferation assay, MeWo cell line
  IC50: 0.117 µM
134 cancer cell lines; Homo sapiens, NCCIT, read-out: IC50 in cell proliferation assay, NCC-IT cell line
  IC50: 12.1 µM
134 cancer cell lines; Homo sapiens, NCI-H82, read-out: IC50 in cell proliferation assay, cell line NCI-H82
  IC50: > 31.6 µM
134 cancer cell lines; Homo sapiens, NCI-H460, read-out: IC50 in cell proliferation assay, NCI-H460 cell line
  IC50: 0.12 µM
134 cancer cell lines; Homo sapiens, NCI-H661, read-out: IC50 in cell proliferation assay, NCI-H661 cell line
  IC50: 3.31 µM
134 cancer cell lines; Homo sapiens, NCI-H716, read-out: IC50 in cell proliferation assay, cell line NCI-H716 (FGFR2-COL14A1)
  IC50: 0.027 µM
134 cancer cell lines; Homo sapiens, NCI-H1650, read-out: IC50 in cell proliferation assay, NCI-H1650 cell line (EGFR exon19del)
  IC50: 8.56 µM
134 cancer cell lines; Homo sapiens, NCI-H1975, read-out: IC50 in cell proliferation assay, NCI-H1975 cell line (EGFR p.L858R + p.T790M)
  IC50: 0.201 µM
134 cancer cell lines; Homo sapiens, NCI-H2228, read-out: IC50 in cell proliferation assay, NCI-H2228 cell line (EML4-ALK)
  IC50: 0.016 µM
134 cancer cell lines; Homo sapiens, OVCAR-3, read-out: IC50 in cell proliferation assay, cell line OVCAR-3
  IC50: > 31.6 µM
134 cancer cell lines; Homo sapiens, PFSK-1, read-out: IC50 in cell proliferation assay, cell line PFSK-1
  IC50: > 31.6 µM
134 cancer cell lines; Homo sapiens, RL95-2, read-out: IC50 in cell proliferation assay, cell line RL95-2 (EGFR p.A289V)
  IC50: 0.024 µM
134 cancer cell lines; Homo sapiens, RPMI-7951, read-out: IC50 in cell proliferation assay, cell line RPMI-7951 (BRAF p.V600E)
  IC50: 0.199 µM
134 cancer cell lines; Homo sapiens, RS4-11, read-out: IC50 in cell proliferation assay, cell line RS4;11
  IC50: > 31.6 µM
134 cancer cell lines; Homo sapiens, Rec1, read-out: IC50 in cell proliferation assay, cell line REC-1
  IC50: > 31.6 µM
134 cancer cell lines; Homo sapiens, SHP77, read-out: IC50 in cell proliferation assay, cell line SHP-77
  IC50: > 31.6 µM
134 cancer cell lines; Homo sapiens, SK-BR-3, read-out: IC50 in cell proliferation assay, cell line SK-BR-3 (ERBB2 amplification)
  IC50: > 31.6 µM
134 cancer cell lines; Homo sapiens, SK-N-AS, read-out: IC50 in cell proliferation assay, cell line SK-N-AS
  IC50: 0.014 µM
134 cancer cell lines; Homo sapiens, SK-N-FI, read-out: IC50 in cell proliferation assay, cell line SK-N-FI
  IC50: 0.798 µM
134 cancer cell lines; Homo sapiens, SK-N-MC, read-out: IC50 in cell proliferation assay, cell line SK-N-MC
  IC50: > 31.6 µM
134 cancer cell lines; Homo sapiens, SK-N-SH, read-out: IC50 in cell proliferation assay, cell line SK-N-SH (ALK p.F1174L)
  IC50: 0.059 µM
134 cancer cell lines; Homo sapiens, SNU-5, read-out: IC50 in cell proliferation assay, cell line SNU-5 (MET amplification)
  IC50: 1.46 µM
134 cancer cell lines; Homo sapiens, SNU-16, read-out: IC50 in cell proliferation assay, cell line SNU-16 (FGFR2 amplification)
  IC50: 9.73 µM
134 cancer cell lines; Homo sapiens, SNU-C2B, read-out: IC50 in cell proliferation assay, cell line SNU-C2B (EGFR p.R165Q)
  IC50: 0.176 µM
134 cancer cell lines; Homo sapiens, SU-DHL-1, read-out: IC50 in cell proliferation assay, cell line SU-DHL-1 (NPM1-ALK)
  IC50: 2.85 µM
134 cancer cell lines; Homo sapiens, SU-DHL-6, read-out: IC50 in cell proliferation assay, cell line SU-DHL-6
  IC50: 0.047 µM
134 cancer cell lines; Homo sapiens, SUP-T1, read-out: IC50 in cell proliferation assay, cell line SUP-T1
  IC50: > 31.6 µM
134 cancer cell lines; Homo sapiens, SW48, read-out: IC50 in cell proliferation assay, cell line SW48 (EGFR p.G719S)
  IC50: 0.014 µM
134 cancer cell lines; Homo sapiens, SW480, read-out: IC50 in cell proliferation assay, cell line SW480
  IC50: 0.739 µM
134 cancer cell lines; Homo sapiens, SW626, read-out: IC50 in cell proliferation assay, cell line SW626
  IC50: 0.032 µM
134 cancer cell lines; Homo sapiens, SW780, read-out: IC50 in cell proliferation assay, cell line SW780 (FGFR3-BAIAP2L1)
  IC50: 0.272 µM
134 cancer cell lines; Homo sapiens, SW837, read-out: IC50 in cell proliferation assay, cell line SW837
  IC50: 0.11 µM
134 cancer cell lines; Homo sapiens, SW872, read-out: IC50 in cell proliferation assay, cell line SW872 (BRAF p.V600E)
  IC50: 0.034 µM
134 cancer cell lines; Homo sapiens, SW900, read-out: IC50 in cell proliferation assay, cell line SW900
  IC50: 0.077 µM
134 cancer cell lines; Homo sapiens, SW948, read-out: IC50 in cell proliferation assay, cell line SW948
  IC50: 0.082 µM
134 cancer cell lines; Homo sapiens, SW982, read-out: IC50 in cell proliferation assay, cell line SW982 (BRAF p.V600E)
  IC50: 0.166 µM
134 cancer cell lines; Homo sapiens, SW-620, read-out: IC50 in cell proliferation assay, cell line SW620
  IC50: 0.018 µM
134 cancer cell lines; Homo sapiens, T98G, read-out: IC50 in cell proliferation assay, cell line T98G
  IC50: 11.9 µM
134 cancer cell lines; Homo sapiens, TCC-SUP, read-out: IC50 in cell proliferation assay, cell line TCCSUP
  IC50: 0.363 µM
134 cancer cell lines; Homo sapiens, THP-1, read-out: IC50 in cell proliferation assay, cell line THP-1
  IC50: 0.017 µM
134 cancer cell lines; Homo sapiens, U2OS, read-out: IC50 in cell proliferation assay, cell line U2OS
  IC50: 4.12 µM
134 cancer cell lines; Homo sapiens, U-87 MG, read-out: IC50 in cell proliferation assay, cell line U-87MG ATCC
  IC50: 8.59 µM
134 cancer cell lines; Homo sapiens, U-118-MG, read-out: IC50 in cell proliferation assay, cell line U-118MG
  IC50: > 31.6 µM
134 cancer cell lines; Homo sapiens, UMUC3, read-out: IC50 in cell proliferation assay, cell line UM-UC-3
  IC50: 0.124 µM
134 cancer cell lines; Hs766T, read-out: IC50 in cell proliferation assay, Hs 766T cell line
  IC50: 0.033 µM
134 cancer cell lines; L-82, read-out: IC50 in cell proliferation assay, L-82 cell line (NPM1-ALK)
  IC50: 1.91 µM
134 cancer cell lines; Rh30, read-out: IC50 in cell proliferation assay, cell line Rh30
  IC50: > 31.6 µM
134 cancer cell lines; read-out: IC50 in cell proliferation assay, 11-18 cell line (EGFR p.L858R)
  IC50: > 31.6 µM
134 cancer cell lines; read-out: IC50 in cell proliferation assay, Hs 852.T cell line
  IC50: 0.271 µM
134 cancer cell lines; read-out: IC50 in cell proliferation assay, JAR cell line
  IC50: > 31.6 µM
134 cancer cell lines; read-out: IC50 in cell proliferation assay, cell line 5637
  IC50: 0.139 µM
134 cancer cell lines; read-out: IC50 in cell proliferation assay, cell line A-388
  IC50: 0.696 µM
134 cancer cell lines; read-out: IC50 in cell proliferation assay, cell line DB
  IC50: > 31.6 µM
134 cancer cell lines; read-out: IC50 in cell proliferation assay, cell line DEL (NPM1-ALK)
  IC50: > 31.6 µM
134 cancer cell lines; read-out: IC50 in cell proliferation assay, cell line ES-2 (BRAF p.V600E)
  IC50: 0.188 µM
134 cancer cell lines; read-out: IC50 in cell proliferation assay, cell line PA-1
  IC50: 1.35 µM
134 cancer cell lines; read-out: IC50 in cell proliferation assay, cell line PC-3
  IC50: > 31.6 µM
134 cancer cell lines; read-out: IC50 in cell proliferation assay, cell line RD
  IC50: 0.04 µM
134 cancer cell lines; read-out: IC50 in cell proliferation assay, cell line RKO (BRAF p.V600E)
  IC50: 0.029 µM
134 cancer cell lines; read-out: IC50 in cell proliferation assay, cell line RL
  IC50: > 31.6 µM
134 cancer cell lines; read-out: IC50 in cell proliferation assay, cell line RT-4 (FGFR3-TACC3)
  IC50: 19 µM
134 cancer cell lines; read-out: IC50 in cell proliferation assay, cell line SR (NPM1-ALK)
  IC50: 4.03 µM
134 cancer cell lines; read-out: IC50 in cell proliferation assay, cell line T24
  IC50: 0.06 µM
134 cancer cell lines; read-out: IC50 in cell proliferation assay, cell line TT (RET p.C634W)
  IC50: 1.75 µM
134 cancer cell lines; read-out: IC50 in cell proliferation assay, cell line VA-ES-BJ
  IC50: 8.28 µM
AP-1060 (ETV6-NTRK3)
  IC50: 18.8 µM
